{"source": "patent US20180000727A1", "about": "“COMPOSITION AND METHODS TO IMPROVE STABILITY, DOSING, PHARMA[…] PRODUCT SHELF LIFE OF ENDOCANNABINOIDS, PHYTOCANNABINOIDS AND […] CA[…] BY NASAL INHAER” (priority 2015, published 2018)", "key": {"[1]": {"settings": "intranasally at 1.0 to 1.3 mg/kg in rats; cited from earlier work"}, "[2]": {"settings": "oral administration; cited from earlier work"}, "[3]": {"experiment": "Twelve months storage, THC degradation to Cannabinol by gas chromatography", "settings": "twelve months storage at −10 °C in darkness, 5 ml screw top bottles", "description": "Extract was concentrated by vacuum evaporation and percent of THC degradation quantitated by gas chromatograpy."}}}
{"smiles": "CCCCCc1cc(O)c2c(c1)OC(C)(C)[C@@H]1CCC(C)=C[C@@H]21", "note": "[THC, Delta-9-tetrahydrocannabinol]", "values": [{"measurement": "analgesic response, time post administration", "setting": "[1]", "value": 15, "unit": "min"}, {"measurement": "duration of analgesic response", "setting": "[1]", "value": 120, "unit": "min"}, {"measurement": "oral dose reaching the circulation unchanged", "setting": "[2]", "value": 10, "unit": "%"}, {"measurement": "percent degraded to Cannabinol", "setting": "[3]", "value": 22.6, "unit": "%"}]}
